Measured values taken from patent US9126941B2, “Treatment of hyperproliferative disorders with diarylhydantoin compounds” (The Regents of the University of California, priority 2005, dated 2015).
“Also recorded” adds a separate entry of the source.

What was measured:
[1] = system: LNCaP cells; assay: MTS growth assay, hormone sensitive LNCaP cells; assay type: cell-based
Procedure: FIG. 10. Inhibitory effect on growth of hormone sensitive prostate cancer cells. […] After 4 days of incubation, cell growth was measured by MTS assay.

[2] = system: hormone refractory LAPC4 xenograft; assay: Hormone refractory LAPC4 xenograft model; assay type: in vivo, mice; conditions: 1 mg per kg orally once daily, 17 days
Procedure: FIG. 9. […] (A), tumor size was measured by caliber. (B), the tumors were taken out from the mice after 17 days of treatment, tumor lysate was extracted, and PSA level in tissue lysate was determined by ELISA.
This model was established from passaging of hormone sensitive prostate cancer in castrated mice, which mimics the clinical progression of prostate cancer (2).

[3] = system: AR-overexpressed LNCaP xenograft tumors; assay: AR-overexpressed LNCaP xenograft model in castrated male SCID mice, oral once daily; assay type: in vivo; conditions: 1 mg per kg orally once daily, 44 days
Procedure: FIG. 7. […] Mice with established LN-AR xenograft tumors were randomized and treated with indicated compounds orally once daily. Tumor size was measured by caliber.
FIG. 8. […] The tumors were taken out from the mice after 44 days of treatment, tumor lysate was extracted, and PSA level in tissue lysate was determined by ELISA.
First we examined this compound on xenograft tumors established from AR-overexpressed LNCaP cells. The engineered cells in Matrigel (Collaborative Biomedical) were injected subcutaneously into the flanks of the castrated male SCID mice. Tumor size was measured weekly in three dimensions using calipers. After xenograft tumors established (tumor size reached at least 40 mm^3), mice with tumors were randomized and treated with different doses of compounds orally once daily.

[4] = system: castrated luciferase transgenic mice; assay: Castrated luciferase transgenic mice with implanted testosterone pellet, urogenital tract weight and photon emission; assay type: in vivo; conditions: 10 mg per kg per day, 14 days
From the text: FIG. 23 presents results of an experiment conducted with wild type nontransgenic mice (WT), castrated luciferase transgenic mice (Cast), and non-castrated luciferase transgenic mice (Intact). […] (A) Urogenital tract weight at 14 days. (B) Photon emission rate at 14 days.

[5] = system: LNCaP-AR xenograft tumors; assay: LNCaP-AR xenograft in SCID mice, tumor size and luciferase imaging (RD162); assay type: in vivo; conditions: for Tumor growth / tumor volume over time (FIG. 11): 10 or 50 mg/kg orally every day, 18 days; for Photon emission associated with luciferase activity (FIG. 12): day 18, 3 hours after last dose
Procedure: FIG. 11 is a graph of tumor size. AR overexpressing LNCaP cells were injected in the flanks of castrated […] mice, subcutaneously. When tumors reached about 100 cubic mm, they were randomized into five groups. Each group had nine animals. […] The tumors were measured three-dimensionally, width, length and depth, using a caliper.
FIG. 12 depicts experimental results of tumor size. At day 18, the animals were imaged via an optical CCD camera, 3 hours after last dose of treatment. A ROI was drawn over the tumor for luciferase activity measurement in photon/second. The right panels is a representation of the ROIs measurements.
(A) The relative tumor volume as a function of time shown for each set of mice. (B) Images of each set of mice with photon emission associated with luciferase activity at day 31 shown as color contours. (C) Rate of photon emission associated with luciferase activity shown at several times for each set of mice.
All animal experiments were performed in compliance with the guidelines of the Animal Research Committee of the University of California at Los Angeles. Animals were bought from Taconic and maintained in a laminar flow tower in a defined flora colony. LNCaP-AR and LNCaP-vector cells were maintained in RPMI medium supplemented with 10% FBS. 10^6 cells in 100 μl of 1:1 Matrigel to RPMI medium were injected subcutaneously into the flanks of intact or castrated male SCID mice. Tumor size was measured weekly in three dimensions (length×width×depth) using calipers. Mice were randomized to treatment groups when tumor size reached approximately 100 mm^3. Drugs were given orally every day at 10 mg/kg and 50 mg/kg. To obtain pharmacodynamic readout, the animals were imaged via an optical CCD camera, 3 hours after last dose of the treatment. A ROI is drawn over the tumor for luciferase activity measurement in photon/second. The right panels were a representation of the ROIs measurements.

[6] = system: SkBr3; assay: Growth effect on SkBr3 cells; assay type: cell-based; conditions: breast cancer cells
[7] = system: 3T3; assay: Growth effect on 3T3 fibroblasts; assay type: cell-based; conditions: normal mouse fibroblast cell line
[8] = system: DU-145 cells; assay: MTS growth assay, DU-145 cells; assay type: cell-based; conditions: prostate cancer cell line lacking AR expression
[9] = system: MCF7; assay: Growth effect on MCF7 cells; assay type: cell-based; conditions: breast cancer cells
[10] = molecular target: T1, AR (Homo sapiens, UniProt P10275); assay: cell-based; assay type: cell-based; conditions: for PSA levels of LN-AR cells (FIG. 14): various doses
T1 sequence (P10275 whole entry, looked up): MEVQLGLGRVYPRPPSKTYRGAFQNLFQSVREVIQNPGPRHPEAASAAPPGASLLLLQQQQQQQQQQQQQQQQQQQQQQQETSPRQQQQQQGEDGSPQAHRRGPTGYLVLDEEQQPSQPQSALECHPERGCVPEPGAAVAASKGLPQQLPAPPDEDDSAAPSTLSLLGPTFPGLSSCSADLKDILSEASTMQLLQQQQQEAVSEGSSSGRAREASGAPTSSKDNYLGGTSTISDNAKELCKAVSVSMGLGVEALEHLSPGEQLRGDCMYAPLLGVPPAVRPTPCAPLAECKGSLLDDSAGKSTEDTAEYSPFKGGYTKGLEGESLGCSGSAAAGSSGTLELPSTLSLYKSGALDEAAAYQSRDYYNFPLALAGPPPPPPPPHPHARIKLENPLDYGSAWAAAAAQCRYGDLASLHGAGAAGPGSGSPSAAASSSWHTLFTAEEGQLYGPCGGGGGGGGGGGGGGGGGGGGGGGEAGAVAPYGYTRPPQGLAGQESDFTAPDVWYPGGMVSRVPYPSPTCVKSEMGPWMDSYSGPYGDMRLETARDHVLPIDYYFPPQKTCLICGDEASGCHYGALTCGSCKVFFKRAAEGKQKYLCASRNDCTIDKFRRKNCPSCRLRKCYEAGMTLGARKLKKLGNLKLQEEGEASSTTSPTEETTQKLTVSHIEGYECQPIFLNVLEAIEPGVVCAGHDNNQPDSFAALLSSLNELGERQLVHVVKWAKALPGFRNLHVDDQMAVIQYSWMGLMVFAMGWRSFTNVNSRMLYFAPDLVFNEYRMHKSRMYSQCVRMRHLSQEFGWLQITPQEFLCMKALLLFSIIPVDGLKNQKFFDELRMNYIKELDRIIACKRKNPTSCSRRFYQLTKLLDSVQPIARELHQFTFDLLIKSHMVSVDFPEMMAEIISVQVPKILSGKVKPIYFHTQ
Procedure: It is well established that PSA levels are indicators of AR activities in prostate cancer. […] The LNCaP-AR cells are a line of lymph node carcinoma of prostate cells transduced with a plasmid that makes express androgen receptors. […] After four days incubation, secreted PSA levels were assayed using PSA ELISA kits (American Qualex, San Clemente, Calif.)

[11] = molecular target: T1, AR; assay: cell-based; assay type: cell-based
Procedure: The compounds were subjected to tests using an artificial AR response reporter system in a hormone refractory prostate cancer cell line. […] After two days of incubation, reporter activities were assayed.

[12] = Ranking of compounds in tiers for utility in treating prostate cancer; conditions: assay not specified
From the text: The placement of compounds into tiers was based on available data coupled with analytical judgment. Data considered included in vitro assays (AR response reporter system in LNCaP cell line, PSA level measurement, MTS mitochondrial assay) and in vivo experiments (tumor size measured directly or by emission induced by luciferase reporter gene, pharmacokinetic assays based on blood plasma levels). Not every compound was subjected to each assay. […] Judgment was applied in ranking compounds relative to each other for their utility in treating prostate cancer, in particular when ranking two compounds for which the same experiments were not performed. Characteristics considered in establishing the ranking include AR antagonism activity, lack of AR agonism in hormone refractory cells, prevention of tumor growth, tumor shrinkage, and pharmacokinetic behavior, with a longer residence time in blood being advantageous.

[13] = Pharmacokinetics in FVB mice, drug concentration by HPLC; conditions: for Css, 10 mg/kg [μM] / Css, 25 mg/kg [μM] / Css, 50 mg/kg [μM]: steady-state concentration in mice plasma
Procedure: Mice were divided into groups of three for each time points. Two mice were not treated with drug and two other mice were treated with vehicle solution. […]
The drug was dissolved in a mixture 1:5:14 of DMSO:PEG400:H20. (Vehicle solution) and was administered into mice through the tail vein. The animals are warmed under a heat lamp for approximately 20 minutes prior to treatment to dilate their tail vein. […] After drug administration, the animals were euthanized via CO2 inhalation at different timepoints: […], […], 2 h, 6 h, 16 h. Animals were immediately bleed after exposure to CO2 via cardiac puncture (1 ml BD syringe+27 G ⅝ needle).
The samples for HPLC analysis were prepared according to the following procedure: • Blood cells were separated from serum by centrifugation. • To 400 μl of serum were added 80 μl of a 10 μM solution of an internal standard and 520 μl of acetonitrile. Precipitation occurred. • The mixture was vortexed for 3 minutes and then placed under ultrasound for 30 minutes. • The solid particles were filtered off or were separated by centrifugation. • The filtrate was dried under an argon flow to dryness.

[14] = system: L1AR cell line; assay: Luciferase activity of the L1AR cell line; assay type: cell-based; conditions: at a given concentration, 125 nmol to 1000 nmol
[15] = 10 mg per kg per day, LN-AR (HR) in SCID mice

CC(O)(CS(=O)(=O)c1ccc(F)cc1)C(=O)Nc1ccc(C#N)c(C(F)(F)F)c1 (stereo not shown) [Bicalutamide, N-[4-cyano-3-(trifluoromethyl)phenyl]-3-[(4-fluorophenyl)sulfonyl]-2-hydroxy-2-methylpropanamide, reference compound]
Inhibition of hormone sensitive LNCaP cell growth (MTS) ([1]; dose-dependent): mildly inhibited | Growth of hormone refractory LAPC4 xenograft (FIG. 9a) [2]: did not inhibit | PSA expression in hormone refractory LAPC4 xenograft (FIG. 9b) [2]: did not inhibit | Growth of LNCaP-AR xenograft tumors (FIG. 7a) [3]: did not inhibit growth | Photon emission associated with luciferase activity (FIG. 23) [4]: decrease | Urogenital tract weight (FIG. 23) [4]: decrease | Tumor growth / tumor volume over time (FIG. 11) [5]: tumors continued to grow | Photon emission associated with luciferase activity (FIG. 12) [5]: remained about the same or increased

Cc1ccc(N2C(=S)N(c3ccc(C#N)c(C(F)(F)F)c3)C(=O)C2(C)C)cc1 [RD7, 4-[3-(4-methylphenyl)-4,4-dimethyl-5-oxo-2-thioxoimidazolidin-1-yl]-2-trifluoromethyl-benzonitrile]
Growth effect on SkBr3 [6]: no growth effect | Growth effect on 3T3 [7]: no growth effect | Potency relative to bicalutamide on hormone sensitive prostate cancer cells ([1]; FIG. 10, MTS): 10 fold | Growth inhibitory effect on DU-145 cells [8]: no growth inhibitory effect | Growth effect on MCF7 [9]: no growth effect

CNC(=O)CCCc1ccc(N2C(=S)N(c3ccc(C#N)c(C(F)(F)F)c3)C(=O)C23CCC3)cc1 [RD131, 4-{4-[7-(4-Cyano-3-trifluoromethylphenyl)-8-oxo-6-thioxo-5,7-diaza-spiro[3.4]oct-5-yl]phenyl}-N-methyl-butyramide]
Rank order, most active to least active, relative PSA level (FIG. 4) ([10]; 500 nM): RD138>RD131>RD37>RD133>RD134>RD137>RD138>RD135>bicalutamide | Decrease in PSA level of LNCaP-AR cells, comparison (FIG. 4) ([10]; at concentrations of 1000 nM): greater decrease in PSA level of LNCaP-AR cells than RD133, RD134, and RD138 | PSA level, LN/AR cell line, comparison ([10]; for a given dose / concentration): less than the PSA level upon exposure to RD128 and RD129 | PSA levels of LN-AR cells (FIG. 14) [10]: PSA levels decreased | IC50 [11]: 92 nM | IC50 compared with bicalutamide (FIG. 15) ([11]; assay not specified): much lower than the IC50 for bicalutamide | Activity (words, overall) [12]: particularly advantageous | Pharmacokinetic behavior, residence time in blood ([13]; mice): metabolize fast | Css, 10 mg/kg [μM] [13]: 0.39 µM | Css, 25 mg/kg [μM] [13]: 0.43 µM | Css, 50 mg/kg [μM] [13]: 0.40 µM

CNC(=O)c1ccc(N2C(=S)N(c3ccc(C#N)c(C(F)(F)F)c3)C(=O)C23CCC3)cc1 [RD161, N-methyl-4-[7-(4-cyano-3-trifluoromethylphenyl)-8-oxo-6-thioxo-5,7-diazaspiro[3.4]oct-5-yl]benzamide]
Luciferase activity in LNCaP-AR cells (FIG. 3) [11]: acted to reduce luciferase activity | Rank order, most active to least active, relative luciferase activity (FIG. 3) ([11]; 500 nM): RD152>RD153>RD145>RD163>RD161=RD162>bicalutamide | Luciferase activity, L1AR cell line (FIG. 24) [14]: less than the luciferase activity upon exposure to RD149

CNC(=O)c1ccc(N2C(=S)N(c3ccc(C#N)c(C(F)(F)F)c3)C(=O)C23CCC3)cc1F [RD162, N-methyl-4-[7-(4-cyano-3-trifluoromethylphenyl)-8-oxo-6-thioxo-5,7-diaza-spiro[3.4]oct-5-yl]-2-fluorobenzamide]
PSA levels of LN-AR cells (FIG. 21) ([10]; doses of 100, 200, 500 and 1000 nM): decreased | PSA levels of LN-AR cells (FIG. 14) [10]: PSA levels decreased | Luciferase activity in LNCaP-AR cells (FIG. 3) [11]: acted to reduce luciferase activity | Photon emission associated with luciferase activity (FIG. 23) [4]: decrease | Urogenital tract weight (FIG. 23) [4]: decrease | Tumor volume, 1 mg per kg body weight per day (FIG. 18) ([5]; 1 mg per kg per day): the rate of tumor increase decreased | Tumor volume, 10 mg per kg body weight per day (FIG. 18) ([5]; 10 mg per kg per day): tumor size decreased with time | Photon emission associated with luciferase activity (FIG. 20) [5, 15]: decrease in photon emission | Tumor size (FIG. 20) [5, 15]: decrease or stabilization of tumor size | Photon emission associated with luciferase activity (FIG. 19) ([5]; 10 mg per kg per day, day 17 relative to day 0): decreased | Tumor growth / tumor volume over time (FIG. 11) [5]: effective to prevent tumor growth and even to cause tumor shrinkage; also recorded: tumors decreased in size | Photon emission associated with luciferase activity (FIG. 12) [5]: decreased | Luciferase activity, L1AR cell line (FIG. 24) [14]: less than the luciferase activity upon exposure to RD149 | Css, 10 mg/kg [μM] [13]: 9.9 µM | Css, 25 mg/kg [μM] [13]: 10.7 µM | Css, 50 mg/kg [μM] [13]: 10.2 µM
